# Measured values reported in patent US20120094958A1, “QUINOLINES AS INHIBITORS OF FARNESYL PYROPHOSPHATE SYNTHASE” (NOVARTIS AG, priority 2008, published 2012).
# Like-named read-outs stand apart in the source and are kept apart here.
# Molecular target: T1, Recombinant human Farnesyl Pyrophosphate synthase (FPPS) (Homo sapiens, UniProt P14324)
# T1 construct: made in house
# T1 sequence (P14324 1-353 isoform P14324-2): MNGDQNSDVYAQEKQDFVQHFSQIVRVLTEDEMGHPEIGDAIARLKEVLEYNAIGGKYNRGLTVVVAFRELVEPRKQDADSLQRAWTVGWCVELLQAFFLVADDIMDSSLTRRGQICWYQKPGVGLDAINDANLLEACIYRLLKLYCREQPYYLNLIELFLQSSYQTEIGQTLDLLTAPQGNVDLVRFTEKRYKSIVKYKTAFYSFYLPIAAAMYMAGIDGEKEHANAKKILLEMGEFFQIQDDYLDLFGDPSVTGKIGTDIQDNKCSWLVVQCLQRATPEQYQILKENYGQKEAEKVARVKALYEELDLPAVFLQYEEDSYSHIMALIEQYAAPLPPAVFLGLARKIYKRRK
# Assay: FPPS enzyme assay, scintillation proximity (FlashPlate)
# Assay type: biochemical
# [1] = FlashPlate SPA, GPP 150 nM, [3H]-IPP 150 nM, FPPS 500 pM, 45 minutes at room temperature, highest concentration tested 100 μM, read-out: FPPS IC50
structure (smiles),measurement,setting,value
"COC(=O)C(CNC(=O)c1ccc2cccc(-c3cccc4ccccc34)c2n1)NS(=O)(=O)NC(=O)OC(C)(C)C (racemic) [Example 13, rac. 2-[(tert-Butoxycarbonylamino-sulfonyl)-amino]-3-[(8-naphthalen-1-yl-quinoline-2-carbonyl)-amino]-propionic acid methyl ester]",IC50,[1],13.5 µM
"COC(=O)C(CNC(=O)c1ccc2cccc(-c3cccc4ccccc34)c2n1)NS(N)(=O)=O (racemic) [Example 14, rac. 2-[(Amino-sulfonyl)-amino]-3-[(8-naphthalen-1-yl-quinoline-2-carbonyl)amino]-propionic acid methyl ester]",IC50,[1],39.7 µM
"O=C(NCC1NS(=O)(=O)NC1=O)c1ccc2cccc(-c3cccc4ccccc34)c2n1 (racemic) [Example 15.a, rac. 8-Naphthalen-1-yl-quinoline-2-carboxylic acid (1,1,4-trioxo-1lambda*6*-[1,2,5]thiadiazolidin-3-ylmethyl)-amide]",IC50,[1],> 100 µM
"O=C(O)c1ccc2cccc(-c3cccc4ccccc34)c2n1 [Example 1, 8-Naphthalen-1-quinoline-2-carboxylic acid]",IC50,[1],0.52 µM
O=C(O)c1ccc2cccc(-c3cccc4[nH]ccc34)c2n1 [Example 2.a.ii],IC50,,6.5 µM
O=C(OCc1ccccc1)c1ccc2cccc(-c3cccc4cnccc34)c2n1 [Example 2.b.i],IC50,[1],> 10 µM
O=C(OCc1ccccc1)c1ccc2cccc(-c3cccc4ncccc34)c2n1 [Example 2.c.i],IC50,[1],> 10 µM
O=C(O)c1ccc2cccc(-c3cccc4ncccc34)c2n1 [Example 2.c.ii],IC50,[1],2.7 µM
O=C(OCc1ccccc1)c1ccc2cccc(-c3cccc4c3CCCC4=O)c2n1 [Example 2.d.i],IC50,[1],> 10 µM
O=C(OCc1ccccc1)c1ccc2cccc(-c3cccc4[nH]c(=O)ccc34)c2n1 [Example 2.g.i],IC50,[1],19.7 µM
O=C(O)c1ccc2cccc(-c3cccc4[nH]c(=O)ccc34)c2n1 [Example 2.g.ii],IC50,[1],> 100 µM
"O=C(NCP(=O)(O)O)c1ccc2cccc(-c3cccc4ccccc34)c2n1 [Example 3, {[(8-Naphthalen-1-yl-quinoline-2-carbonyl)-amino]-methyl}-phosphonic acid]",IC50,[1],40.3 µM
"O=P(O)(O)CNc1ccc2cccc(-c3cccc4ccccc34)c2n1 [Example 5, [(8-Naphthalen-1-yl-quinolin-2-ylamino)-methyl]-phosphonic acid]",IC50,[1],4.1 µM
"O=[N+]([O-])c1cc(-c2cccc3ccccc23)c2nc(NCP(=O)(O)O)ccc2c1 [Example 6, [(6-Nitro-8-naphthalen-1-yl-quinolin-2-ylamino)-methyl]-phosphonic acid]",IC50,[1],14 µM
"O=P(O)(O)CNc1ccc2cc(-c3cc[nH]c3)cc(-c3cccc4ccccc34)c2n1 [Example 9, {[8-Naphthalen-1-yl-6-(1H-pyrrol-3-yl)-quinolin-2-ylamino]-methyl}-phosphonic acid]",IC50,[1],21.5 µM
"CCOP(=O)(CNc1ccc2cc(-c3ccn([Si](C(C)C)(C(C)C)C(C)C)c3)cc(-c3cccc4ccccc34)c2n1)OCC [Example 9.1, {[8-Naphthalen-1-yl-6-(1-triisopropylsilanyl-1H-pyrrol-3-yl)-quinolin-2-ylamino]-methyl}-phosphonic acid diethyl ester]",IC50,[1],> 100 µM
"O=P(O)(O)CNc1ccc2cc(-c3cccnc3)cc(-c3cccc4ccccc34)c2n1 [Example 10, [(8-Naphthalen-1-yl-6-pyridin-3-yl-quinolin-2-ylamino)-methyl]-phosphonic acid]",IC50,[1],2.8 µM
"CCOP(=O)(CNc1ccc2cc(-c3cccnc3)cc(-c3cccc4ccccc34)c2n1)OCC [Example 10.1, [(8-Naphthalen-1-yl-6-pyridin-3-yl-quinolin-2-ylamino)-methyl]-phosphonic acid diethyl ester]",IC50,[1],2.8 µM
"O=P(O)(O)Cc1ccc2cccc(-c3cccc4ccccc34)c2n1 [Example 11, (8-Naphthalen-1-yl-quinolin-2-ylmethyl)-phosphonic acid]",IC50,[1],7.9 µM
